Entries after “also recorded” stand apart in the source; their conditions may differ.
Tests used:
NOD1 = assay: IL-8 production, calcium flux agonist plus NOD1 ligand (FIGS. 2A-2E); type: cell-based; details: suboptimal doses: 20 nM thapsigargin, 316 nM A23187, 1 μM ionomycin, 10 μM cyclopiazonic acid, 31.6 μM DBHQ
Protocol: (§1) To investigate if that observation was also true for other pattern recognition receptors, and especially for TLR and NOD receptors and other ligands, the inventors tested numerous TLR and NOD receptors and various ligands.
(§2) The doses used in this experiment were 20 nM for thapsigargin, 316 nM for A23187, 1 μM for ionomycin, 10 μM for cyclopiazonic acid, and 31.6 μM for DBHQ.
(§3) Thus, a clear pattern of adjuvant activity of calcium flux agonists on the immune response, and especially on IL-8 production and NF-κB signaling is evident where the immune response is associated with a TLR- or NOD-mediated event.

κB-LUC THP-1 cells = assay: Activation of κB-LUC THP-1 cells by S. aureus conditioned/spent media (FIGS. 3A-3C); type: cell-based, human; details: for recognition of S. aureus conditioned/spent media (activation of κB-LUC THP-1 cells): suboptimal doses: thapsigargin, 316 nM A23187, 1 μM ionomycin
NOD2 = assay: IL-8 production, calcium flux agonist plus NOD2 ligand (FIGS. 2A-2E); type: cell-based; details: suboptimal doses: 20 nM thapsigargin, 316 nM A23187, 1 μM ionomycin, 10 μM cyclopiazonic acid, 31.6 μM DBHQ
Protocol: as §1, §2, §3

TLR2 = assay: IL-8 production, calcium flux agonist plus TLR2 ligand (FIGS. 2A-2E); type: cell-based; details: suboptimal doses: 20 nM thapsigargin, 316 nM A23187, 1 μM ionomycin, 10 μM cyclopiazonic acid, 31.6 μM DBHQ
Protocol: as §1, §2, §3

TLR4 = assay: IL-8 production, calcium flux agonist plus TLR4 ligand (FIGS. 2A-2E); type: cell-based; details: suboptimal doses: 20 nM thapsigargin, 316 nM A23187, 1 μM ionomycin, 10 μM cyclopiazonic acid, 31.6 μM DBHQ
Protocol: as §1, §2, §3

TLR9 = assay: IL-8 production, calcium flux agonist plus TLR9 ligand (FIGS. 2A, 2B, 2E); type: cell-based; details: suboptimal doses: 20 nM thapsigargin, 316 nM A23187, 1 μM ionomycin
Protocol: as §1, §2, §3

TLR5 = assay: IL-8 production, calcium flux agonist plus TLR5 ligand (FIGS. 2A-2E); type: cell-based; details: suboptimal doses: 20 nM thapsigargin, 316 nM A23187, 1 μM ionomycin, 10 μM cyclopiazonic acid, 31.6 μM DBHQ
Protocol: as §1, §2, §3

[1] = tested on: human THP-1 promonocytic leukemia cell line; assay: IL-8 production / cytokine release from THP-1 cells, TLR2 ligand with or without calcium flux agonist; type: cell-based; details: suboptimal dose of TLR2 ligand (Pam2CSK4 / Pam2CYS) plus suboptimal dose of agonist; beyond cumulative individual responses
Protocol: (§4) For example, human promonocytic THP-1 cells were incubated in the presence or absence of a suboptimal dose of the TLR2 ligand Pam2CSK4 and compared to similarly treated cells which also received suboptimal doses of ionophore (here: A23187 and ionomycin). […] In another example, KB-LUC THP-1 cells (a THP-1-derived transfectant line harboring an NF-κB-driven luciferase expression cassette) were cultivated in the presence or absence of a suboptimal dose of the TLR2 ligand Pam2CSK4 and compared to similarly treated cells that also received suboptimal doses of various SERCA inhibitors.
Here, the ionophores A23187 and ionomycin, as well as the SERCA inhibitor thapsigargin synergize with the TLR2 ligand (Pam2CYS) in the activation of cytokine release from the human THP-1 promonocytic leukemia cell line. It should be especially noted that while the TLR2 ligand alone provided for about 5 ng/ml IL-8 response, addition of a suboptimal dose of the calcium flux agonists (e.g. 20 nM for thapsigargin, 316 nM for A23187, and 1 μM for ionomycin) produced more than 10-fold quantities of IL-8 production in the cells.

KB-LUC THP-1 cells = assay: NF-κB-driven luciferase in KB-LUC THP-1 cells, TLR2 ligand Pam2CSK4 with or without SERCA inhibitor; type: cell-based, human; details: suboptimal dose of Pam2CSK4 plus suboptimal dose of SERCA inhibitor; beyond cumulative individual responses
Protocol: as §4

Compound	synergistic effect to augment cellular response (IL-8 production) for NOD1 (NOD1)	recognition of S. aureus conditioned/spent media (activation of κB-LUC THP-1 cells) (κB-LUC THP-1 cells)	synergistic effect to augment cellular response (IL-8 production) for NOD2 (NOD2)	synergistic effect to augment cellular response (IL-8 production) for TLR2 (TLR2)	synergistic effect to augment cellular response (IL-8 production) for TLR4 (TLR4)	synergistic effect to augment cellular response (IL-8 production) for TLR9 (TLR9)	synergistic effect to augment cellular response (IL-8 production) for TLR5 (TLR5)	synergy with TLR2 ligand in IL-8 production / cytokine release [1]	effect on calcium flux-induced synergy (κB-LUC THP-1 cells; extracellular chelator added at 1 mM)	amount of luciferase produced (NF-κB-driven), synergy with TLR2 ligand (KB-LUC THP-1 cells)
CNc1ccc2oc(C[C@H]3O[C@@]4(CC[C@H]3C)O[C@H]([C@H](C)C(=O)c3ccc[nH]3)[C@H](C)C[C@H]4C)nc2c1C(=O)O [A23187]	synergistic effect	significantly enhanced	synergistic effect	synergistic effect	synergistic effect	synergistic effect	synergistic effect	significantly increased; also recorded: synergize		
CC(C)(C)c1cc(O)c(C(C)(C)C)cc1O [DBHQ, 2,5-di(tert-butyl) hydroquinone]	synergistic effect		synergistic effect	synergistic effect	synergistic effect		synergistic effect			
O=C(O)CN(CCOCCOCCN(CC(=O)O)CC(=O)O)CC(=O)O [EGTA]									inhibited	
C[C@H](CCC(=O)O)C[C@H](C)C[C@H](C)C(=O)/C=C(\O)[C@H](C)C[C@H](C)C/C=C/[C@@H](C)[C@@H](O)[C@@H](C)[C@@H](O)C[C@@H]1CC[C@@](C)([C@H]2CC[C@@](C)([C@@H](C)O)O2)O1 [ionomycin]	synergistic effect	significantly enhanced	synergistic effect	synergistic effect	synergistic effect	synergistic effect	synergistic effect	significantly increased; also recorded: synergize		
C/C=C(/C)C(=O)O[C@H]1C(C)=C2[C@H]([C@@H]1OC(=O)CCCCCCC)[C@@](C)(OC(C)=O)C[C@H](OC(=O)CCC)[C@@]1(O)[C@H]2OC(=O)[C@@]1(C)O [thapsigargin]	synergistic effect	significantly enhanced	synergistic effect	synergistic effect	synergistic effect	synergistic effect	synergistic effect	synergize		significantly increased

Reference: patent US10434142B2, “Compositions and methods of improved wound healing” (Chan Soon-Shiong Nanthealth Foundation, priority 2013, dated 2019)
